Values after ≈ are worked out from the molar mass of the structure shown. Values joined by “and” are separate entries in the source; they are usually repeats but may differ in a detail not shown here. Equal values may be shown once.
Legend:
[1] = Particle size by optical microscopy; assay type: physicochemical
Source text: Alginate gel microparticles were examined using an optical microscope (Zeiss, AXIOSCOP 40) with […] attachment (AXIOCam MRm). The morphology and particle size of GS-loaded alginate microparticles were characterized according to the methods described above. The morphology of insulin-loaded alginate gel microparticles and the particle size were characterized according to the methods described above. The morphology and particle size was characterized according to the methods described above.

[2] = British Pharmacopoeia 2008; cited from earlier work
physchem = details: aqueous buffer

- powder particle size ([1]; 'as received' powder, before size reduction): 30-100 micron and 30-40 micron
- crystal / powder particle size ([1]; after precipitation from acetone into alginate solution, optical microscope): 10-15 microns
- solubility (physchem): 300 µg/mL (≈ 1450 µM)
SMILES: CC(C)Cc1ccc(C(C)C(=O)O)cc1 (centres unmarked) [ibuprofen]
- solubility in acetone, methanol and dichloromethane (DCM) [2]: freely soluble
- solubility in water [2]: practically insoluble

Reference: patent US9157054B2, “Device and method for preparing microparticles” (The University of Queensland, priority 2007, dated 2015)
